# Results taken from patent US9112158B1, “Asymmetric styrene derivatives having carbazole and aniline and organic light emitting diode using the same” (National Tsing Hua University, priority 2014, dated 2015).
# Assay: solubility of the compound in toluene
# Format: physicochemical
row,SMILES,Solubility
1,"C(=C\c1ccc(N(c2ccccc2)c2cccc3ccccc23)cc1)/c1ccc(-c2ccc(/C=C/c3ccc4c(c3)c3ccccc3n4-c3ccccc3)cc2)cc1 [PCzNA, N-phenyl-N-{4-[(E)-2-(4-{4-[(E)-2-(9-phenyl-9H-carbazol-3-yl)ethenyl]phenyl}phenyl)ethenyl]phenyl}naphthalen-1-amine]",>1 wt %
2,"C(=C\c1ccc(N(c2ccccc2)c2ccccc2)cc1)/c1ccc(-c2ccc(/C=C/c3ccc4c(c3)c3ccccc3n4-c3ccccc3)cc2)cc1 [PCzDPA, N,N-diphenyl-4-[(E)-2-(4-{4-[(E)-2-(9-phenyl-9H-carbazol-3-yl)ethenyl]phenyl}phenyl)ethenyl]aniline]",>1 wt %
